The record followed here is patent US20250115582A1, “MOLECULAR GLUE DEGRADERS AND METHODS OF USING THE SAME” (Monte Rosa Therapeutics, Inc., priority 2022, published 2025).

The target in series [1] is T1, CK1α (Homo sapiens, UniProt P48729+Q96SW2).
T1 construct: HEK293 clonal line with CRISPR KI HiBiT tag on CSNK1A1; host or cells: HEK293 clonal line, CRISPR HiBiT knock-in at CSNK1A1, stably expressing LgBiT
Briefly: CK1α NanoBiT assay (HiBiT-tagged CSNK1A1 in HEK293 clonal line). The series is classed as cell-based. The note with it: HEK293 HiBiT-CSNK1A1/LgBiT cells, 24 h incubation, luminescence. The essentials:
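HiBiT knock-in CSNK1A1 HEK293 cells stably expressing LgBiT were plated at 5000 cells/well in DMEM/10% FBS with 0.2% Endurazine live-cell substrate and pre-incubated 16 h. Compound was added to a final […] for 24 h at 37 °C before the luminescence read. Signal was normalised to plate controls, and DC50 came from a 3-parameter logistic fit (hillslope 1).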
On the technique in general: HiBiT is a short tag that completes a luciferase, so light tracks the accessible tagged protein.

Series [2] relates to SKCO1. Briefly: GI50 growth inhibition, CyQUANT, SKCO1. The note with it: Homo sapiens, SK-CO-1, SKCO1 cells, 120 to 168 hours. Format: cell-based. Here is the method: (§1) SKCO1, LS180, and LS174T cell lines were purchased from ATCC. CW2 cell line was purchased from Riken. GP2D cell line was purchased from Sigma/ECACC. All cell lines were cultured in manufacturer's recommended media at 37° C., 5% CO2. Briefly, cells were suspended in 200 μL of media and seeded at 300 to 1,800 cells per well in tissue culture treated 96-well plates with black walls and clear bottom. Plates were incubated overnight and initial (T0) read was performed the following day using CyQUANT Direct Cell Proliferation Assay Kit (Thermo Fisher Scientific) according to manufacturer's protocol. All compounds were solubilized in DMSO and prepared at 3-fold serial dilution, using 9 points starting at 30 μM as highest concentration, administered to cells and incubated for 120 to 168 hours, at which point CyQUANT assay measurement was performed using Acumen Cellista instrument (Ex/Em 480/520 nm). Media-only wells were used as blank, and 0.3% DMSO was used as DMSO-treated cell control. Growth inhibition (percent response) was calculated using the following formula in Excel: “=if ([Compound treated Day N]>[Untreated Day 0, AVG], ([Compound treated Day N]−[Untreated Day 0, AVG])/([Untreated Day N]−[Untreated Day 0, AVG])*100, ([Compound Treated Day N]−[Untreated Day 0, AVG])/([Untreated Day 0, AVG])*100)”. GI50 is the response corresponding to the 50% of untreated control.
(§2) GI50 data are reported in Tables 4a, 4b, 4c, 4d, and 4e for compounds in Table 1. In Tables 4a, 4b, 4c, 4d, and 4e below, According to the code, A represents a GI50 value of ≤0.1 μM, B represents a GI50 value>0.1 μM and ≤1 μM, C represents an GI50 value>1 μM.

For series [3], the system named is CW2. Put plainly: GI50 growth inhibition, CyQUANT, CW2. Format: cell-based. The conditions noted are these: Homo sapiens, CW-2, CW2 cells, 120 to 168 hours. Here is the method:
as §1, §2

Series [4] has as its system GP2D. Briefly: GI50 growth inhibition, CyQUANT, GP2D. The series is classed as cell-based. The conditions noted are these: GP2D cells, 120 to 168 hours. Here is the method: as §1, §2
Series [5] concerns LS174T. Put plainly: GI50 growth inhibition, CyQUANT, LS174T. The conditions noted are these: Homo sapiens, LS174T cells, 120 to 168 hours. The series is classed as cell-based. Here is the method: as §1, §2
Series [6] can be described thus: Mouse oral PK at 10 mg/kg. Format: in vivo. The conditions noted are these: male BALB/c mice, PO 10 mg/kg, plasma. Here is the method:
Male BALB/c mice were fasted overnight and administered a discrete, PO dose of Compound 154 or Compound 147 at 10 mg/kg.
Blood samples were collected serially from three animals/time-point following PO administration of the test compounds to the mice and placed in tubes containing K2EDTA. The blood samples were centrifuged, and the aliquots of the resulting plasma stored frozen at −60 to −90° C.
The plasma samples were analyzed by LC-MS/MS to determine concentrations of the test compounds. The in-life portion of the study and the bioanalysis of plasma samples was conducted at Wuxi (China).
The pharmacokinetic parameters for compound 154 or compound 147 were calculated by non-compartmental analysis using Phoenix WinNonlin software.

Each structure is given as a SMILES string. Bounds are passed on as bounds.

T1 sequence (P48729 whole entry): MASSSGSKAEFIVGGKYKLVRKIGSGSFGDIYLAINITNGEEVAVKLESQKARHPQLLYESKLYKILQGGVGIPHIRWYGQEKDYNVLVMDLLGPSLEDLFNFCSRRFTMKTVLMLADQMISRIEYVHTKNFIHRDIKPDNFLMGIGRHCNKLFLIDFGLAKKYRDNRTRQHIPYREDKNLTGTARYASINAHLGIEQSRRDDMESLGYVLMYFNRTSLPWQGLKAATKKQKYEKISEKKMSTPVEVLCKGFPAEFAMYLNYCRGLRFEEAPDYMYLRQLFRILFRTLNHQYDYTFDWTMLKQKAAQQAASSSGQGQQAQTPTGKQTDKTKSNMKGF
T1 sequence (Q96SW2 whole entry): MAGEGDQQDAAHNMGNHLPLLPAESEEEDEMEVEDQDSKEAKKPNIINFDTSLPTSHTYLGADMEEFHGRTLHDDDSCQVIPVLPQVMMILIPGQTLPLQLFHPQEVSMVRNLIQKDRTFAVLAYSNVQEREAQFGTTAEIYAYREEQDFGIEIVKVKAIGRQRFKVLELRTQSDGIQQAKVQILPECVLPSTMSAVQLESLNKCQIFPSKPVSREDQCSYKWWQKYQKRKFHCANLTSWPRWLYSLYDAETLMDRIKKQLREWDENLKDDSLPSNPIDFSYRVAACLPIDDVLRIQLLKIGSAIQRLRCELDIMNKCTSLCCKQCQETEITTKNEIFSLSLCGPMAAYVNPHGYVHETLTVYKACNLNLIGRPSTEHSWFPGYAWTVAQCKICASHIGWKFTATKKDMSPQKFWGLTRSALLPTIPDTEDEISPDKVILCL
T1 sequence (Q16531 2-1140 partner limits assumed): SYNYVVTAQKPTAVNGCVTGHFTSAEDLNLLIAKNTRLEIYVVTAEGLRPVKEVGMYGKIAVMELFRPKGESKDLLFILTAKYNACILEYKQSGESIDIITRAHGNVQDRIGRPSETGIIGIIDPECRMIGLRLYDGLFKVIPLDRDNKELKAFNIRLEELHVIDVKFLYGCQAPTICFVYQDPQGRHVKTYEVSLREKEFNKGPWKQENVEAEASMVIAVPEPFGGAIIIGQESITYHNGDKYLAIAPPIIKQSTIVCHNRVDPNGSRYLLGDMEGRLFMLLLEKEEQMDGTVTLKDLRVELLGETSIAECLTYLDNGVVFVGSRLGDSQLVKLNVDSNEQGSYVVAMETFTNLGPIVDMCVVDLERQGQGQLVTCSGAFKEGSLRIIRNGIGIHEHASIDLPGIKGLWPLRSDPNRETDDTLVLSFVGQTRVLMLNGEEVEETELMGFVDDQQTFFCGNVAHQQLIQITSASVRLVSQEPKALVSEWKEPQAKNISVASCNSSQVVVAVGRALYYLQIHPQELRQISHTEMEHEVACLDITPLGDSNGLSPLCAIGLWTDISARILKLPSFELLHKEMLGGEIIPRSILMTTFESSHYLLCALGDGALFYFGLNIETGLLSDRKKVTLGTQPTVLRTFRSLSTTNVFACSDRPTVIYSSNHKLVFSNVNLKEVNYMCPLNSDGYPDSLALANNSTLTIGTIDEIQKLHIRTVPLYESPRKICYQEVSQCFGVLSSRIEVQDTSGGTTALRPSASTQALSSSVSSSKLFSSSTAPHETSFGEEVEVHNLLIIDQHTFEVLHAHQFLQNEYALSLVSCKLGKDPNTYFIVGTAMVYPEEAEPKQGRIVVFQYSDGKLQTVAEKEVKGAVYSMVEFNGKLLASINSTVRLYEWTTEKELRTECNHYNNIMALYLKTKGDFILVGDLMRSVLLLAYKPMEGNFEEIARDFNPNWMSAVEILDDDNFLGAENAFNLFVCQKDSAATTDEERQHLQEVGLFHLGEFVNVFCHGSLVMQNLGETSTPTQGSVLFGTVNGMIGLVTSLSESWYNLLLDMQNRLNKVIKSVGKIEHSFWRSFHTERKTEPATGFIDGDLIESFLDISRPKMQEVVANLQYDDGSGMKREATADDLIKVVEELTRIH

The term GI50 denotes the concentration at which growth is held to half of that of the control. High values mean less potent growth inhibition, low ones more potent growth inhibition. By Tmax is commonly meant the time at which the peak concentration occurs. Usually AUC stands for the area under the concentration-time curve, a measure of exposure. Read a low AUC as less exposure. One may read the AUC(0-t) as the area under the concentration-time curve up to a stated or last time point. Low values mean less exposure, high ones more exposure. As a reminder, the Cmax is the highest concentration seen after dosing. Compound `O=C1CCC(N2Cc3cc(NC(=O)c4ccc(Cl)cc4)ccc3C2=O)C(=O)N1` (stereo not shown) [Compound 147] gave a DC50 in series [1] of under 0.1 µM. Moreover, the GI50 in series [2] was 100 to 1000 nM; in series [3] it was 100 to 1000 nM; in series [4] it was over 1000 nM; in series [5], over 1000 nM. In addition, the Tmax in series [6] amounted to 0.5 h. In series [6] (Mean ± SD), this compound returned an area under the curve (AUC) of 1210 ± 235 ng·h/mL. This compound came in with an AUC(0-t) in series [6] (Mean ± SD) of 1170 ± 258 ng·h/mL. Further, the peak level in series [6] (Mean ± SD) (Cmax) was 574 ± 76.8 ng/mL.

Broadly, the half-life is the time needed for the level to fall by half in the phase considered. Lower therefore signals fast loss. `O=C1CCC(N2Cc3cc(NC(=O)c4ncn(-c5ccccc5)c4C(F)(F)F)ccc3C2=O)C(=O)N1` (stereo not shown) [Compound 154, N-(2-(2,6-dioxopiperidin-3-yl)-1-oxoisoindolin-5-yl)-1-phenyl-5-(trifluoromethyl)-1H-imidazole-4-carboxamide] gave a DC50 in series [1] of under 0.1 µM. Moreover, the GI50 in series [2] is under 100 nM. The compound also displayed a GI50 in series [3] of under 100 nM. The compound further gave a GI50 in series [4] of 100 to 1000 nM. The same compound gave a GI50 in series [5] of 100 to 1000 nM. Further, the Tmax in series [6] came to 1 h. In addition, in series [6] (Mean ± SD), the exposure (AUC) is 50900 ± 10400 ng·h/mL, the AUC(0-t) came to 50900 ± 10300 ng·h/mL, the Cmax amounted to 12900 ± 2560 ng/mL and the half-life is 2.19 ± 0.24 h.
